ChEMBL document CHEMBL5726883, “Pyrazines as modulators of GPR6” (2019)

Target: G-protein coupled receptor 6 (Homo sapiens, UniProt P46095)
Test: A.1 Inhibition of cAMP Activity of GPR6 In Vitro Assay: This cell based assay measures the ability of compounds to inhibit the constitutive cAMP activity of GPR6 receptor expressed in CHO-K1 cells. CHO cells were stably expressed with GPR6 receptor, whose expression is controlled by a tetracycline inducible element. The cells were cultured in medium containing F12K, 10% FBS, 1% Penn/Strep, 200 ug/mL Hygromycin. GPR6 receptor expression was induced for 20 hrs with 10 µg/ml doxycycline (sigma D9891) in growth media. After addition of doxycycline cells were plated at a density of 250-500 cells per well in half-volume black clear bottom plates (Costar) and place in an incubator (37°, 5% C(O)2) for 20 hours prior to cAMP assays.Culture media was removed from cells and they were washed with […] of Ringer's Buffer (MgCl2 0.047 mg/mL, NaH2PO4 0.18 mg/mL, Na2HPO4 0.1 mg/mL, KCl 0.34 mg/mL, NaHC(O)3 1.26 mg/mL, D-glucose 1.8 mg/mL, NaCl 7 mg/mL; pH=7.4). Compounds suspended in DMSO were diluted in Ringer's Buffer containing 0.5% fatty acid free BSA and incubated on cells for 45 min at 37° and 5% C(O)2. After incubation cells were incubated for 10 min at room temp with Eu-cAMP tracer solution from a Perkin Elmer Lance HTRF UltracAMP assay kit (TRF0264).

G-protein coupled receptor 6, sequence (P46095 whole entry): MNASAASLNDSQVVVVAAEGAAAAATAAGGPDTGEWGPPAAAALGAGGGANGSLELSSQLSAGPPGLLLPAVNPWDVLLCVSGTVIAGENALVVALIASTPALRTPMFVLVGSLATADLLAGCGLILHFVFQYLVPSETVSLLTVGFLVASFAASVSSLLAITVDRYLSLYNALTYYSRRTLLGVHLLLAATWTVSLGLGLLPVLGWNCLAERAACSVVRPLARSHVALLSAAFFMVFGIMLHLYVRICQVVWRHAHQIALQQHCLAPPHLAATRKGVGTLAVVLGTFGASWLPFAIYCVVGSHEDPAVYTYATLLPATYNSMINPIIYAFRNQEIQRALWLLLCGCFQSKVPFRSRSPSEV

EC50: 62.5 µM
SMILES: CC(C)Nc1nc(COCCN(C)C)c(C#N)nc1N1CCN(Cc2ccc(F)cc2F)CC1
